Source: BindingDB's records for doi:10.1021/acs.jmedchem.8b00685 (University of Glasgow, 2018)

experiment: Inhibition of human 20S constitutive proteasome beta-2 using Bz-VGR-AMC as substrate after 60 mins by fluorescence assay

SMILES	IC50
CC(C)C[C@H](NC(=O)[C@H](CC(C)C)NC(=O)[C@H](Cc1ccccc1)NC(=O)OC(C)(C)C)C(=O)N[C@@H](CCCNC(=N)N)CS(=O)(=O)F	700 nM
CC(C)C[C@H](NC(=O)[C@H](CC(C)C)NC(=O)[C@@H](N)Cc1ccccc1)C(=O)N[C@@H](Cc1ccc(CN)cc1)CS(=O)(=O)F	140 nM
CC(C)C[C@H](NC(=O)[C@H](Cc1ccccc1)N=[N+]=[N-])C(=O)N[C@@H](CC(C)C)C(=O)N[C@@H](CCCNC(=N)N)CS(=O)(=O)F	350 nM
CC(C)C[C@H](NC(=O)[C@H](Cc1ccccc1)N=[N+]=[N-])C(=O)N[C@@H](CC(C)C)C(=O)N[C@@H](CCCCN)CS(=O)(=O)F	700 nM
CC(=O)N[C@@H](Cc1ccccc1)C(=O)N[C@@H](CC(C)C)C(=O)N[C@@H](CC(C)C)C(=O)N[C@@H](Cc1ccc(CN)cc1)CS(=O)(=O)F	119 nM
CC(C)C[C@H](NC(=O)[C@H](CC(C)C)NC(=O)[C@H](Cc1ccccc1)NC(=O)OCc1ccccc1)C(=O)N[C@@H](CCCNC(=N)N)CS(=O)(=O)F	150 nM
CC(C)C[C@H](NC(=O)OCc1ccccc1)C(=O)N[C@@H](CC(C)C)C(=O)N[C@@H](CC(C)C)C(=O)N[C@@H](CCCNC(=N)N)CS(=O)(=O)F	200 nM
CC(C)C[C@H](NC(=O)[C@H](CC(C)C)NC(=O)[C@@H](N)Cc1ccccc1)C(=O)N[C@@H](Cc1ccc(N)cc1)CS(=O)(=O)F	220 nM
CC(C)C[C@H](NC(=O)[C@H](CC(C)C)NC(=O)[C@@H](N)Cc1ccccc1)C(=O)N[C@@H](CCCNC(=N)N)CS(=O)(=O)F	250 nM
CC(=O)N[C@@H](Cc1ccccc1)C(=O)N[C@@H](CC(C)C)C(=O)N[C@@H](CC(C)C)C(=O)N[C@@H](Cc1ccc(N)cc1)CS(=O)(=O)F	2100 nM
CC(C)C[C@H](NC(=O)[C@H](CC(C)C)NC(=O)[C@@H](N)Cc1ccccc1)C(=O)N[C@@H](CCCCN)CS(=O)(=O)F	470 nM
CC(=O)N[C@@H](Cc1ccccc1)C(=O)N[C@@H](CC(C)C)C(=O)N[C@@H](CC(C)C)C(=O)N[C@@H](CCCNC(=N)N)CS(=O)(=O)F	980 nM
CC(=O)N[C@@H](Cc1ccccc1)C(=O)N[C@@H](CC(C)C)C(=O)N[C@@H](CC(C)C)C(=O)N[C@@H](CCCCN)CS(=O)(=O)F	1500 nM
